One block for each compound: values may come before it.
Key:
Cox B virus = experiment: Plaque reduction assay against Cox B virus; assay type: cell-based; settings: for inhibition at 20 µg/mL / inhibition at 40 µg/mL: Vero
Experimental: (§1) Compounds: 10 mg were dissolved in 1 mL (10% DMSO and 90% deionized water), sterilized by 1% antibiotic–antimycotic mixture and stored in −20.
(§2) Cells: Vero cell line was used. The cells were propagated in DMEM medium (Lonza, USA) supplemented with 10% fetal bovine serum (Gibco, USA), 1% antibiotic–antimycotic mixture (Lonza, USA).
Virus: Cox B virus was propagated and titrated to give final count of 0.9 × 10^5 viral particle/mL.
This test was done according to Tebas et al.[47], In a 12-well plate Vero cells (10^5 cells/mL) were cultivated for 1 day at 37 °C. The Cox B virus was mixed with the safe concentration of the compound and incubated for 1 h at 37 °C before being added to the cells. Following the removal of the growth media, the cells were injected with virus-extract combinations ([…]) and then rinsed with PBS (Phosphate Buffer Saline). Following a one-hour contact period for virus adsorption, the cell monolayer was supplemented with one milliliter of Dulbecco’s Modified Eagles Media (DMEM) containing 2% agarose. The plates were then allowed to solidify and incubated at 37 °C until the development of viral plaques. Formalin (10%) was added for 2 h then plates were stained with crystal violet. Control wells were included where untreated virus was incubated with Vero cells and finally plaques were counted and percentage reduction in plaques formation in comparison to control wells was recorded as following:
% inhibition = (viral count(untreated) - viral count(treated))/viral count(untreated)X100.

Vero cells = experiment: Cytotoxicity assay on Vero cells (microscopic morphology); assay type: cell-based; design: key to Cytotoxicity on Vero cells (cell sheet affected): -: Safe concentration; + 1, +2, + 3, +4: about 25, 50, 75, 100% of cell sheet was affected respectively; + 1, +2, + 3, +4: about 25, 50, 75, 100% of cell sheet was affected respectively; + 1, +2, + 3, +4: about 25, 50, 75, 100% of cell sheet was affected respectively; + 1, +2, + 3, +4: about 25, 50, 75, 100% of cell sheet was affected respectively; M: masked (color of compounds made cells unseen); settings: for Cytotoxicity on Vero cells (cell sheet affected): 24 h, morphological changes; for Safety effect on Vero cells (in words): Table 1, 24 h
Experimental: as §1, §2
Cytotoxic effect of compounds was measured by inoculation different doses of compounds on tested cells then examining them microscopically after 24 h to determine any morphological changes that appeared on cells as a result of being subjected to the compounds[46]. Vero cells were seeded onto 96-well plates, which were then incubated for the whole night. After a 24-hour incubation period at 37 °C in a humidified incubator with 5% CO2, compounds were injected at concentrations of 10, 20, 30, 40, 50, 60, 70, 80, 90, and 100 µg /100 µl. Any morphological changes were monitored under a microscope.

melting point: 132 to 135 °C
Structure (SMILES): COc1ccc(OC)c(C=C2/C(=N/Nc3nc(C)c(/N=N/c4ccc(C)cc4)s3)c3ccccc3/C2=N\Nc2nc(C)c(/N=N/c3ccc(C)cc3)s2)c1 [7b, 2,2’-(((1E,3E)−2-(2,5-dimethoxybenzylidene)−1H-indene-1,3(2H)-diylidene)bis(hydrazin-1-yl-2-ylidene))bis(4-methyl-5-((E)-p-tolyldiazenyl)thiazole)]
Viral count (treated) (Cox B virus; 20 ug/mL): 1.6 × 10^7
Viral count (treated) (Cox B virus; 40 ug/mL): 1.07 × 10^7
inhibition at 20 µg/mL (Cox B virus): 0%
inhibition at 40 µg/mL (Cox B virus): 33%
Cytotoxicity on Vero cells (cell sheet affected) (Vero cells; 10 µg/100µl): -
Cytotoxicity on Vero cells (cell sheet affected) (Vero cells; 20 µg/100µl): -
Cytotoxicity on Vero cells (cell sheet affected) (Vero cells; 30 µg/100µl): -
Cytotoxicity on Vero cells (cell sheet affected) (Vero cells; 40 µg/100µl): -
Cytotoxicity on Vero cells (cell sheet affected) (Vero cells; 50 µg/100µl): -
Cytotoxicity on Vero cells (cell sheet affected) (Vero cells; 60 µg/100µl): M
Cytotoxicity on Vero cells (cell sheet affected) (Vero cells; 70 µg/100µl): M
Cytotoxicity on Vero cells (cell sheet affected) (Vero cells; 80 µg/100µl): M
Cytotoxicity on Vero cells (cell sheet affected) (Vero cells; 90 µg/100µl): M
Cytotoxicity on Vero cells (cell sheet affected) (Vero cells; 100 µg/100µl): M
Safety effect on Vero cells (in words) (Vero cells): dense and coloured that made masking to the cell sheet

Structure (SMILES): COc1ccc(OC)c(C=C2/C(=N/Nc3nc(C)c(/N=N/c4ccc(Cl)cc4)s3)c3ccccc3/C2=N\Nc2nc(C)c(/N=N/c3ccc(Cl)cc3)s2)c1 [7c, 2,2’-(((1E,3E)−2-(2,5-dimethoxybenzylidene)−1H-indene-1,3(2H)-diylidene)bis(hydrazin-1-yl-2-ylidene))bis(5-((E)-(4-chlorophenyl)diazenyl)−4-methylthiazole)]
Viral count (treated) (Cox B virus; 20 ug/mL): 1.07 × 10^7
Viral count (treated) (Cox B virus; 40 ug/mL): 1.6 × 10^7
inhibition at 20 µg/mL (Cox B virus): 33%
inhibition at 40 µg/mL (Cox B virus): 0%
Cytotoxicity on Vero cells (cell sheet affected) (Vero cells; 10 µg/100µl): -
Cytotoxicity on Vero cells (cell sheet affected) (Vero cells; 20 µg/100µl): -
Cytotoxicity on Vero cells (cell sheet affected) (Vero cells; 30 µg/100µl): -
Cytotoxicity on Vero cells (cell sheet affected) (Vero cells; 40 µg/100µl): -
Cytotoxicity on Vero cells (cell sheet affected) (Vero cells; 50 µg/100µl): -
Cytotoxicity on Vero cells (cell sheet affected) (Vero cells; 60 µg/100µl): -
Cytotoxicity on Vero cells (cell sheet affected) (Vero cells; 70 µg/100µl): -
Cytotoxicity on Vero cells (cell sheet affected) (Vero cells; 80 µg/100µl): -
Cytotoxicity on Vero cells (cell sheet affected) (Vero cells; 90 µg/100µl): M
Cytotoxicity on Vero cells (cell sheet affected) (Vero cells; 100 µg/100µl): M
Safety effect on Vero cells (in words) (Vero cells): dense and coloured that made masking to the cell sheet

melting point: 198 to 200 °C
Structure (SMILES): COc1ccc(OC)c(C=C2/C(=N/NC3=NC(=O)C(C)S3)c3ccccc3/C2=N\NC2=NC(=O)C(C)S2)c1 (centres unmarked) [9b, 2,2’-(((1E,3E)−2-(2,5-dimethoxybenzylidene)−1H-indene-1,3(2H)-diylidene)bis(hydrazin-1-yl-2-ylidene))bis(5-methylthiazol-4(5H)-one)]
Cytotoxicity on Vero cells (cell sheet affected) (Vero cells; 10 µg/100µl): -
Cytotoxicity on Vero cells (cell sheet affected) (Vero cells; 20 µg/100µl): -
Cytotoxicity on Vero cells (cell sheet affected) (Vero cells; 30 µg/100µl): -
Cytotoxicity on Vero cells (cell sheet affected) (Vero cells; 40 µg/100µl): -
Cytotoxicity on Vero cells (cell sheet affected) (Vero cells; 50 µg/100µl): -
Cytotoxicity on Vero cells (cell sheet affected) (Vero cells; 60 µg/100µl): -
Safety effect on Vero cells (in words) (Vero cells): highly toxic at low concentration

Structure (SMILES): COc1ccc(OC)c(C=C2/C(=N/Nc3nc(C)c(C(C)=O)s3)c3ccccc3/C2=N\Nc2nc(C)c(C(C)=O)s2)c1 [11a, 1,1’-((((1E,3E)−2-(2,5-dimethoxybenzylidene)−1H-indene-1,3(2H)-diylidene)bis(hydrazin-1-yl-2-ylidene))bis(4-methylthiazole-2,5-diyl))bis(ethan-1-one)]
Viral count (treated) (Cox B virus; 20 ug/mL): 1.44 × 10^7
Viral count (treated) (Cox B virus; 40 ug/mL): 0.68 × 10^7
inhibition at 20 µg/mL (Cox B virus): 10%
inhibition at 40 µg/mL (Cox B virus): 57%
Cytotoxicity on Vero cells (cell sheet affected) (Vero cells; 10 µg/100µl): -
Cytotoxicity on Vero cells (cell sheet affected) (Vero cells; 20 µg/100µl): -
Cytotoxicity on Vero cells (cell sheet affected) (Vero cells; 40 µg/100µl): M
Cytotoxicity on Vero cells (cell sheet affected) (Vero cells; 50 µg/100µl): M
Cytotoxicity on Vero cells (cell sheet affected) (Vero cells; 60 µg/100µl): M
Cytotoxicity on Vero cells (cell sheet affected) (Vero cells; 70 µg/100µl): M
Cytotoxicity on Vero cells (cell sheet affected) (Vero cells; 80 µg/100µl): M
Cytotoxicity on Vero cells (cell sheet affected) (Vero cells; 90 µg/100µl): M
Cytotoxicity on Vero cells (cell sheet affected) (Vero cells; 100 µg/100µl): M
Safety effect on Vero cells (in words) (Vero cells): dense and coloured that made masking to the cell sheet

Structure (SMILES): CCOC(=O)c1sc(N/N=C2/C(=Cc3cc(OC)ccc3OC)/C(=N/Nc3nc(C)c(C(=O)OCC)s3)c3ccccc32)nc1C [11b, Diethyl 2,2’-(((1E,3E)−2-(2,5-dimethoxybenzylidene)−1H-indene-1,3(2H)-diylidene)bis-(hydrazin-1-yl-2-ylidene))bis(4-methylthiazole-5-carboxylate)]
Viral count (treated) (Cox B virus; 20 ug/mL): 0.8 × 10^7
Viral count (treated) (Cox B virus; 40 ug/mL): 0.96 × 10^7
inhibition at 20 µg/mL (Cox B virus): 50%
inhibition at 40 µg/mL (Cox B virus): 40%
Cytotoxicity on Vero cells (cell sheet affected) (Vero cells; 10 µg/100µl): -
Cytotoxicity on Vero cells (cell sheet affected) (Vero cells; 20 µg/100µl): -
Cytotoxicity on Vero cells (cell sheet affected) (Vero cells; 30 µg/100µl): -
Cytotoxicity on Vero cells (cell sheet affected) (Vero cells; 40 µg/100µl): -
Cytotoxicity on Vero cells (cell sheet affected) (Vero cells; 50 µg/100µl): -
Cytotoxicity on Vero cells (cell sheet affected) (Vero cells; 60 µg/100µl): M
Cytotoxicity on Vero cells (cell sheet affected) (Vero cells; 70 µg/100µl): M
Cytotoxicity on Vero cells (cell sheet affected) (Vero cells; 80 µg/100µl): M
Cytotoxicity on Vero cells (cell sheet affected) (Vero cells; 90 µg/100µl): M
Cytotoxicity on Vero cells (cell sheet affected) (Vero cells; 100 µg/100µl): M
Safety effect on Vero cells (in words) (Vero cells): dense and coloured that made masking to the cell sheet

Structure (SMILES): COc1ccc(OC)c(C=C2/C(=N/Nc3nc(C)cs3)c3ccccc3/C2=N\Nc2nc(C)cs2)c1 [11c, 2,2’-(((1E,3E)−2-(2,5-dimethoxybenzylidene)−1H-indene-1,3(2H)-diylidene)bis(hydrazin-1-yl-2-ylidene))bis(4-methylthiazole)]
Viral count (treated) (Cox B virus; 20 ug/mL): 0.84 × 10^7
Viral count (treated) (Cox B virus; 40 ug/mL): 0.57 × 10^7
inhibition at 20 µg/mL (Cox B virus): 47%
inhibition at 40 µg/mL (Cox B virus): 64%
Cytotoxicity on Vero cells (cell sheet affected) (Vero cells; 10 µg/100µl): -
Cytotoxicity on Vero cells (cell sheet affected) (Vero cells; 20 µg/100µl): -
Cytotoxicity on Vero cells (cell sheet affected) (Vero cells; 30 µg/100µl): -
Cytotoxicity on Vero cells (cell sheet affected) (Vero cells; 40 µg/100µl): -
Cytotoxicity on Vero cells (cell sheet affected) (Vero cells; 50 µg/100µl): -
Cytotoxicity on Vero cells (cell sheet affected) (Vero cells; 60 µg/100µl): -
Cytotoxicity on Vero cells (cell sheet affected) (Vero cells; 70 µg/100µl): -
Cytotoxicity on Vero cells (cell sheet affected) (Vero cells; 80 µg/100µl): -
Cytotoxicity on Vero cells (cell sheet affected) (Vero cells; 90 µg/100µl): M
Cytotoxicity on Vero cells (cell sheet affected) (Vero cells; 100 µg/100µl): M
Safety effect on Vero cells (in words) (Vero cells): dense and coloured that made masking to the cell sheet

Structure (SMILES): COc1ccc(OC)c(C=C2C(=O)c3ccccc3C2=O)c1 [compound 1, 2-(2,5-dimethoxy-benzylidene)indan-1,3-dione]
Viral count (treated) (Cox B virus; 20 ug/mL): 1.42 × 10^7
Viral count (treated) (Cox B virus; 40 ug/mL): 1.6 × 10^7
inhibition at 20 µg/mL (Cox B virus): 11%
inhibition at 40 µg/mL (Cox B virus): 0%
Cytotoxicity on Vero cells (cell sheet affected) (Vero cells; 10 µg/100µl): -
Cytotoxicity on Vero cells (cell sheet affected) (Vero cells; 20 µg/100µl): -
Cytotoxicity on Vero cells (cell sheet affected) (Vero cells; 30 µg/100µl): -
Cytotoxicity on Vero cells (cell sheet affected) (Vero cells; 40 µg/100µl): -
Cytotoxicity on Vero cells (cell sheet affected) (Vero cells; 50 µg/100µl): -
Cytotoxicity on Vero cells (cell sheet affected) (Vero cells; 60 µg/100µl): -
Cytotoxicity on Vero cells (cell sheet affected) (Vero cells; 70 µg/100µl): -
Cytotoxicity on Vero cells (cell sheet affected) (Vero cells; 80 µg/100µl): -
Cytotoxicity on Vero cells (cell sheet affected) (Vero cells; 90 µg/100µl): -
Cytotoxicity on Vero cells (cell sheet affected) (Vero cells; 100 µg/100µl): -
Safety effect on Vero cells (in words) (Vero cells): higher safety

Reference: PMC11599599, “Synthesis, characterization, molecular docking, pharmacokinetics, and molecular dynamics of new bis-thiazoles based on bis-thiosemicarbazone as anti-coxsackievirus” (Scientific Reports, 2024)
